Laboratory results taken from patent US20260053861A1, “CELL COMPOSITIONS AND METHODS OF USING THE SAME” (THE REGENTS OF THE UNIVERSITY OF CALIFORNIA, priority 2022, published 2026).
Counter-ions that a name gives are not always drawn. Like-named read-outs stand apart in the source and are kept apart here.

System: hPSC-SCs
[1] = HTS viability of hPSC-SCs in the presence of 30 mM glucose, Prestwick library, Table S4

Question: For `CC[C@H](CC[C@@H](C)[C@H]1CC[C@H]2[C@@H]3CC=C4C[C@@H](O)CC[C@]4(C)[C@H]3CC[C@]12C)C(C)C` [Beta-sistosterol], which z.score.t is on record?
Answer: 0.1543

Question: With `CN1C(=O)OC(C)(C)C1=O` [Trimethadione] as the molecule, how does the z.score.t [1] read?
Answer: 1.08

Question: With `CN(C)[C@@H]1C(O)=C(C(N)=O)C(=O)[C@@]2(O)C(O)=C3C(=O)c4c(O)cccc4[C@@](C)(O)[C@H]3C[C@@H]12` [Tetracycline hydrochloride] as the molecule, how does the z.score.t [1] read?
Answer: −0.2425

Question: `Cc1cc2cc3c(C)cc(=O)oc3c(C)c2o1` [Trioxsalen] was tested. Which z.score.t [1] did it give?
Answer: −0.1913

Question: With `CC(C(=O)O)c1ccc(-c2ccccc2)c(F)c1` (stereo not drawn) [Flurbiprofen] as the molecule, how does the z.score.t [1] read?
Answer: 1.824

Question: How did the z.score.t turn out when `C[N+]1(C)CCOC(O)(c2ccc(-c3ccc(C4(O)C[N+](C)(C)CCO4)cc3)cc2)C1.[Br-].[Br-]` (stereo not drawn) [Hemicholinium bromide] was run?
Answer: −0.07901

Question: With `Cc1onc(-c2ccccc2Cl)c1C(=O)N[C@@H]1C(=O)N2[C@@H]1SC(C)(C)[C@@H]2C(=O)O` [Cloxacillin sodium salt] as the molecule, how does the z.score.t [1] read?
Answer: 0.6255

Question: `CC1(C)S[C@@H]2[C@H](NC(=O)Cc3ccccc3)C(=O)N2[C@H]1C(=O)O.CC1(C)S[C@@H]2[C@H](NC(=O)Cc3ccccc3)C(=O)N2[C@H]1C(=O)O.c1ccc(CNCCNCc2ccccc2)cc1` [Benzathine benzylpenicillin] was tested. Which z.score.t [1] did it give?
Answer: −0.08998

Question: Which z.score.t [1] does the source give for Thioproperazine dimesylate here?
Answer: −1.223

Question: Which z.score.t does the source give for `CC(=O)N(O)CCCCCNC(=O)CCC(=O)N(O)CCCCCNC(=O)CCC(=O)N(O)CCCCCN` [Deferoxamine mesylate] here?
Answer: 0.557

Question: With `CC(=O)[C@H]1CC[C@H]2[C@@H]3C=CC4=CC(=O)CC[C@@]4(C)[C@@H]3CC[C@]12C` [Dydrogesterone] as the molecule, how does the z.score.t [1] read?
Answer: 0.81

Question: For `CN1C(C(=O)Nc2ccccn2)=C(O)c2sccc2S1(=O)=O` [Tenoxicam], which z.score.t [1] is on record?
Answer: 1.659

Question: How did the z.score.t [1] turn out when `COc1ccc(Cc2nccc3cc(OC)c(OC)cc23)cc1OC` [Papaverine hydrochloride] was run?
Answer: 0.1556

Question: For `O=C(CCCN1CCC(O)(c2ccc(Cl)cc2)CC1)c1ccc(F)cc1` [Haloperidol], which z.score.t [1] is on record?
Answer: −1.111

Question: For `O=C(NCNC(=O)NC1C(=O)NC(=O)N1CO)NC1C(=O)NC(=O)N1CO` (stereo not drawn) [Imidurea], which z.score.t is on record?
Answer: 1.224

Question: `CN(C)CCC(c1ccc(Br)cc1)c1ccccn1` (stereo not drawn) [Brompheniramine maleate] was tested. Which z.score.t [1] did it give?
Answer: −0.8478

Question: With `CNC(=O)Oc1ccc2c(c1)[C@]1(C)CCN(C)[C@@H]1N2C.CNC(=O)Oc1ccc2c(c1)[C@]1(C)CCN(C)[C@@H]1N2C.O=S(=O)(O)O` [Eserine sulfate, physostigmine sulfate] as the molecule, how does the z.score.t read?
Answer: −0.3526

Question: With `COC1=CC(=O)C[C@@H](C)[C@]12Oc1c(Cl)c(OC)cc(OC)c1C2=O` [Griseofulvin] as the molecule, how does the z.score.t [1] read?
Answer: −0.636

Question: With `CN(C)CCOC(c1ccccc1)c1ccccc1.Cn1c(=O)c2[nH]c(Cl)nc2n(C)c1=O` [Dimenhydrinate] as the molecule, how does the z.score.t [1] read?
Answer: 0.08508

Question: With `COc1ccc2c(c1OC)CN1CCc3cc4c(cc3C1C2)OCO4` (stereo not drawn) [(d,l)-Tetrahydroberberine] as the molecule, how does the z.score.t read?
Answer: 2.041

Question: For `Cc1c(Cl)cccc1Nc1ccccc1C(=O)O` [Tolfenamic acid], which z.score.t [1] is on record?
Answer: −0.528

Question: `Cn1cnc([N+](=O)[O-])c1Sc1ncnc2nc[nH]c12` [Azathioprine] was tested. Which z.score.t [1] did it give?
Answer: 0.4486

Question: How did the z.score.t [1] turn out when `CC1=C(/C=C/C(C)=C/C=C/C(C)=C/C(=O)O)C(C)(C)CCC1` [Retinoic acid] was run?
Answer: 1.751

Question: How did the z.score.t [1] turn out when `O=C(O)COCCN1CCN(C(c2ccccc2)c2ccc(Cl)cc2)CC1` (stereo not drawn) [Cetirizine dihydrochloride] was run?
Answer: −0.3112

Question: For `CN1[C@@H]2CCC[C@H]1CC(=O)C2.Cl` [Pseudopelletierine hydrochloride], which z.score.t is on record?
Answer: −0.6864

Question: `CC(=O)O[C@]1(C(C)=O)CC[C@H]2[C@@H]3C=C(C)C4=CC(=O)CC[C@@H]4[C@H]3CC[C@@]21C` [Nomegestrol acetate] was tested. Which z.score.t [1] did it give?
Answer: 0.7296

Question: Which z.score.t [1] does the source give for `CC(C)[C@@]1(NC(=O)[C@@H]2C[C@@H]3c4cccc5[nH]cc(c45)C[C@H]3N(C)C2)O[C@@]2(O)[C@@H]3CCCN3C(=O)[C@H](Cc3ccccc3)N2C1=O` [Dihydroergocristine mesylate] here?
Answer: −0.3319

Question: `CC(C)COCC(CN(Cc1ccccc1)c1ccccc1)N1CCCC1` (stereo not drawn) [Bepridil hydrochloride] was tested. Which z.score.t [1] did it give?
Answer: −0.5726

Question: With `CN1CC[C@]23c4ccccc4N[C@H]1[C@]21CCN(C)[C@H]3Nc2ccccc21` [Calycanthine] as the molecule, how does the z.score.t read?
Answer: 0.4849

Question: With `CC(=O)O[C@]1(C(C)=O)CC[C@H]2[C@@H]3C=C(Cl)C4=CC(=O)[C@@H]5C[C@@H]5[C@]4(C)[C@H]3CC[C@@]21C` [Cyproterone acetate] as the molecule, how does the z.score.t [1] read?
Answer: −0.5219

Question: With `NC(N)=Nc1nc(CSCCC(N)=NS(N)(=O)=O)cs1` [Famotidine] as the molecule, how does the z.score.t [1] read?
Answer: 1.191

Question: For `C[C@]12N[C@H](Cc3ccccc31)c1ccccc12` [Dizocilpine maleate], which z.score.t is on record?
Answer: −0.1538

Question: How did the z.score.t [1] turn out when `C[C@H](N)[C@H](O)c1cccc(O)c1` [Metaraminol bitartrate] was run?
Answer: 1.088

Question: `CNCCC=C1c2ccccc2CCc2ccccc21` [Nortriptyline hydrochloride] was tested. Which z.score.t [1] did it give?
Answer: −1.753

Question: Which z.score.t does the source give for `C[C@]12CCC(=O)C=C1CC[C@@H]1[C@@H]2C(=O)C[C@]2(C)C(=O)CC[C@@H]12` [Adrenosterone] here?
Answer: 1.101

Question: With `CCOC(=O)c1cncn1[C@H](C)c1ccccc1` [Etomidate] as the molecule, how does the z.score.t read?
Answer: −0.1902

Question: `COc1ccc(CCN2CCC(Nc3nc4ccccc4n3Cc3ccc(F)cc3)CC2)cc1` [Astemizole] was tested. Which z.score.t [1] did it give?
Answer: −1.866

Question: How did the z.score.t [1] turn out when `Oc1ccc(C=Cc2cc(O)cc(O)c2)cc1` [Resveratrol] was run?
Answer: 0.9702

Question: Which z.score.t does the source give for `O.O.O=c1c(O)c(-c2ccc(O)c(O)c2)oc2cc(O)cc(O)c12` [Quercetine dihydrate] here?
Answer: 1.371

Question: Which z.score.t [1] does the source give for `O=C(O)c1cn(C2CC2)c2cc(N3CCNCC3)c(F)cc2c1=O` [Ciprofloxacin hydrochloride] here?
Answer: 0.6386

Question: Which z.score.t [1] does the source give for `COc1cc(C(=O)OC2CC3CCC(C2)N3C)ccc1O` (stereo not drawn) [Fillalbin] here?
Answer: 0.5365

Question: Which z.score.t [1] does the source give for `CCCCCN(CCCCC)C(=O)C(CCC(=O)O)NC(=O)c1ccc(Cl)c(Cl)c1` (stereo not drawn) [Lorglumide sodium salt] here?
Answer: 1.824

Question: For `CC1(C)O[C@@H]2C[C@H]3[C@@H]4C[C@H](F)C5=CC(=O)C=C[C@]5(C)[C@H]4[C@@H](O)C[C@]3(C)[C@]2(C(=O)CO)O1` [Flunisolide], which z.score.t [1] is on record?
Answer: 1.612

Question: `C#C[C@]1(O)CC[C@H]2[C@@H]3CCC4=CC(=O)CC[C@@H]4[C@H]3CC[C@@]21CC` [Norgestrel-(−)-D] was tested. Which z.score.t [1] did it give?
Answer: 0.0116

Question: Which z.score.t does the source give for Merbromin here?
Answer: −0.7567

Question: With `CC(C)(C)C(=O)OCOC(=O)[C@@H]1N2C(=O)[C@@H](NC(=O)[C@H](N)c3ccccc3)[C@H]2SC1(C)C` [Pivampicillin] as the molecule, how does the z.score.t [1] read?
Answer: −0.2187

Question: How did the z.score.t [1] turn out when `NS(=O)(=O)c1cc(C2(O)NC(=O)c3ccccc32)ccc1Cl` (stereo not drawn) [Chlorthalidone] was run?
Answer: −1.061

Question: For `COc1ccc(OC)c(C(O)C(C)N)c1` (stereo not drawn) [Methoxamine hydrochloride], which z.score.t [1] is on record?
Answer: 1.064

Question: How did the z.score.t [1] turn out when `CC(=O)OCC(=O)[C@@]1(O)CC[C@H]2[C@@H]3CCC4=CC(=O)CC[C@]4(C)[C@@]3(F)[C@@H](O)C[C@@]21C` [Fludrocortisone acetate] was run?
Answer: 1.278

Question: Which z.score.t [1] does the source give for `Clc1ccccc1C(c1ccccc1)(c1ccccc1)n1ccnc1` [Clotrimazole] here?
Answer: −1.91

Question: For `CC[C@@H](C(=O)[C@@H](C)[C@@H](O)[C@H](C)CCc1ccc(C)c(O)c1C(=O)O)[C@H]1O[C@](CC)([C@H]2CC[C@](O)(CC)[C@H](C)O2)C[C@@H]1C` [Lasalocid sodium salt], which z.score.t [1] is on record?
Answer: −2.368
